Entries after “also recorded” stand apart in the source; their conditions may differ. Where two headings read alike, the source gives them in different places.
Tests used:
double-stranded DNA = assay: Binding of NLS peptides to double-stranded DNA
Experimental: (§1) In the examples that follow, peptides were designed and synthesized to contain NLS regions from a variety of viral and human proteins, in particular, T-ag of SV40, and each of the proteins encoded by the human tumor suppressor p53 gene (SEQ ID NO: 1), the E1 protein encoded by bovine papillomavirus (SEQ ID NO: 2), and a set of control peptides. Binding assays of these peptides were performed with a 64 bp oligonucleotide derived from the SV40 core origin (SEQ ID NO: 24). […] Single stranded DNA was bound poorly by p53 and E1 NLS region peptides.

[1] = system: double stranded oligonucleotide containing the SV40 core origin (SEQ ID NO: 24); assay: Nitrocellulose filter binding of peptide to DNA
Experimental: Nitrocellulose filter binding reactions. Assay for the ability of NLS based peptides to bind to DNA were performed using published methods (Sreekumar, K. A., et al., 2000, In, L. Raptis (ed.), Methods in Molecular Biology: SV40 Protocols; Humana Press, Totowa, N.J. p. 49-67). Reactions (20 μl) contained 7 mM MgCl2, 0.5 mM DTT, 4 mM AMP-PNP, 40 mM creatine phosphate (di-Tris salt pH7.7), 0.48 μg of creatine phosphokinase, 0.2 mg of bovine serum albumin per ml, 0.8 μg of Hae III-digested pBR322 DNA, about 25 fmol of a given oligonucleotide (about 10^6 cpm/pmol) and the indicated peptide. After incubation for 20 min at 37° C., the mixtures were filtered under suction through alkali-treated nitrocellulose filters (Millipore type HAWP; pore size, 0.4 μm; stored in 100 mM Tris-HCl, pH7.5). The filters were then washed with 5 ml of 100 mM Tris-HCl, pH 7.5, and were dried and counted in a Beckman LS 3801 scintillation counter.

[2] = system: 64 bp SV40 core origin (SEQ ID NO: 24); assay: Peptide band shift (EMSA without T-ag), core origin; format: binding; settings: for DNA binding seen in EMSA without cross-linking: absence of cross-linking with glutaraldehyde; for Peptide/DNA complex formation in peptide band shift: SV40 core origin, 13-mer set at 1 mM final concentration (20 nmoles)
Experimental: (§2) Electrophoretic mobility shift assays (EMSA). Double stranded oligonucleotides, ^32P labeled at 5′ termini, were prepared using standard procedures (Sambrook, J., et al., 1989, Cold Spring Harbor Laboratory, Cold Spring Harbor, N.Y.; Sreekumar, K. A., et al., 2000, p. 49-67; In, L. Raptis (ed.), Methods in Molecular Biology; SV40 Protocols; Humana Press; Totowa, N.J.). EMSA rections were conducted using conditions for SV40 in vitro replication (Wobbe, C. R., et al., 1985, Proc. Natl. Acad. Sci. USA 82:5710-571 4). The reactions (20 μl) contained 7 mM MgCl2, 0.5 mM DTT, 4 mM AMP-PNP, 40 mM creatine phosphate (pH 7.6), 0.48 μg of creatine phosphate kinase, 5 μg of bovine serum albumin, 0.8 μg of Hae III-digested pBR322 ([…]; used as a nonspecific competitor), about 25 fmol of double stranded oligonucleotide, T-ag and the indicated amounts of peptide. After a 20-min incubation at 37° C., glutaraldehyde (0.1 % final concentration) was added and the reaction products were further incubated for 5 min. The reactions were stopped by the addition of 5 μl of 6× loading dye II (15% Ficoll, 0.25% bromophenol blue, and 0.25% xylene cyanol; Sambrook, J., et al., 1989, Cold Spring Harbor Laboratory, Cold Spring Harbor, N.Y.) to the reaction mixtures. Samples containing T-ag were applied to 3.5 to 12% gradient polyacrylamide gels and electrophoresed in 0.5% Tris-borate-EDTA (TBE) pH 8.4 for about 1.5 h (10 watts).
[…] Moreover, the samples were loaded on 8% polyacryamide gels and electrophoresed in 0.5% TBE pH 8.4 for about 3h (about 200 volts). The gels were dried on Whatman 3 MM paper, subjected to autoradiography and quantitated using a Molecular Dynamics PhosphorImager (Sunnyvale, Calif.).

single-stranded DNA = assay: Binding of NLS peptides to single-stranded DNA
Experimental: as §1

T-ag helicase ATPase = molecular target: T1, T-ag helicase ATPase (Simian virus 40, UniProt P03070); format: biochemical, SV40; settings: duplicate lanes, FIG. 13
T1 construct: made in house
Experimental: A method for measuring ATP hydrolysis involves incubating T-ag with a ^32P-labeled ATP, cross-linking with gluteraldehyde, removing unincorporated nucleotides by passing the reaction products over a Bio-Spin P-30 column, drying the eluate in a Speedvac, resuspending the samples in formic acid, and performing thin layer chromatography on PEI (polyethyleneimine) plates. Using autoradiography, the amount of ATP, ADP and AMP associated with T-ag was determined.

[3] = system: SV40 DNA replication in HeLa human cell crude extracts; assay: SV40 in vitro replication reaction; format: biochemical; set-up: Amount of peptide that completely blocks replication: unit not given here; settings: for Inhibition of SV40 in vitro DNA replication: 30 μl reactions, with T-ag
Experimental: DNA replication reactions. SV40 in vitro replication reactions were conducted as described by Wobbe et al 1985, Proc. Natl. Acad. Sci. USA 82:5710-5714 (see also, Bullock, P. A., et al., 1998, p. 223-243. In S. Cotterill (ed.), Eukaryotic DNA Replication; A practical Approach, Oxford University Press, Oxford). Reaction mixtures (30 μl) contained 7 mM MgCl2, 0.5 mM DTT, 4 mM ATP, 40 mM creatine phosphate (di-Tris salt pH7.7), 1.4 μg of creatine phosphokinase, 12.5 μg/ml pSV01ΔEP, dATP, dGTP, and dTTP (100 μM each), CTP, GTP, and UTP (200 μM each), [α-^32p] dCTP (20 μM, about 5 cpm/fmol) and the indicated peptides.

[4] = system: 64 bp enhancer control (SEQ ID NO: 29); assay: Peptide band shift (EMSA without T-ag), control oligonucleotide; format: binding; settings: 64 bp enhancer control oligonucleotide
Experimental: as §2
Peptide based band shift reactions were identical to those described above except that T-ag was omitted from the reactions and the final glutaraldehyde concentration was reduced to 0.05 %. Moreover, the samples were loaded on 8% polyacryamide gels and electrophoresed in 0.5% TBE pH 8.4 for about 3h (about 200 volts). The gels were dried on Whatman 3 MM paper, subjected to autoradiography and quantitated using a Molecular Dynamics PhosphorImager (Sunnyvale, Calif.).

[5] = molecular target: T2, T-ag oligomerization on 64-bp oligonucleotide containing the SV40 core origin (Simian virus 40, UniProt P03070); format: biochemical; settings: T-ag 6 pmol; for Effect on T-ag oligomerization, mutant set (FIG. 11 Panel B): 64-bp SV40 core origin, peptide concentration not given; for Effect on T-ag oligomerization (hexamer and double hexamer formation): peptide final concentration 1 mM (20 nmoles)
T2 construct: made in house
Experimental: as §2

T2 sequence (P03070 whole entry): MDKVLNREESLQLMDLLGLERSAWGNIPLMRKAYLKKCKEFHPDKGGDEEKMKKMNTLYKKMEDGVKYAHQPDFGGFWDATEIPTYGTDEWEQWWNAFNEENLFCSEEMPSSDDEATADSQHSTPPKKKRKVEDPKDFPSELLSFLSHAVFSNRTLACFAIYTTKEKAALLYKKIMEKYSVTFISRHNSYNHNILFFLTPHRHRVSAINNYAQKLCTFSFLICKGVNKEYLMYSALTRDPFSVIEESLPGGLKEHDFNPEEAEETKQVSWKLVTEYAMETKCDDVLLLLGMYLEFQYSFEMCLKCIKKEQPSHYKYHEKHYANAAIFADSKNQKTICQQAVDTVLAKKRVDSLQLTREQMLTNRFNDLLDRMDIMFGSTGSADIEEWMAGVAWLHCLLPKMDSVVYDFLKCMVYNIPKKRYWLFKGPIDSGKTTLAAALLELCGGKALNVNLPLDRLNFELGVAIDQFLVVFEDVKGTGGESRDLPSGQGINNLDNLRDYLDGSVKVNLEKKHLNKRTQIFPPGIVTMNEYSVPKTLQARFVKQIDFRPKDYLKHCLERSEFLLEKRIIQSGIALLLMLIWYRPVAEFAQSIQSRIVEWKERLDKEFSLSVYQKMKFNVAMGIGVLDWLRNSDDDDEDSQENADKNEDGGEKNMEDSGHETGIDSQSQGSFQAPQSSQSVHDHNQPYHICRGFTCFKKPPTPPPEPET
T1 sequence (P03070 whole entry): as above

## KRKVLGSSQNSSGSEASETPVKRRK [BP-E125]
double-stranded DNA
  Binding to double-stranded DNA: bind to double-stranded DNA
[1]; low peptide concentration 0.25 mM
  Binding to DNA in filter binding assay, E1 peptides: better DNA binder than peptide 217
[1]; low peptide concentration 0.25 mM, listed as peptide E1-P225
  Binding to DNA in filter binding assay, E1 peptides: binds at a relatively low concentration of peptide
[1]; peptide 0.25 mM and 0.5 mM
  Binding to DNA in filter binding assay, E1 peptides: binds to DNA at a lower concentration than does peptide 217
[1]; peptide 0.25 mM and 0.5 mM, listed as BP-E1
  Binding to DNA in filter binding assay, E1 peptides: bound to DNA
[1]; peptide 0.25 mM and 0.5 mM, listed as SEQ ID NO: 2
  Binding to DNA in filter binding assay, E1 peptides: best DNA binder
[1]; peptide 0.25 mM and 0.5 mM, listed as peptide E1-P225
  Binding to DNA in filter binding assay, E1 peptides: found to bind to DNA
[2]; listed as SEQ ID NO: 2
  DNA binding seen in EMSA without cross-linking: does not require cross-linking with glutaraldehyde
[2]; listed as peptide E1-225
  DNA binding seen in EMSA without cross-linking: successful EMSA experiments
single-stranded DNA
  Binding to single-stranded DNA: bound poorly
T-ag helicase ATPase
  Effect on ATPase of T-ag: blocked the degradation of ATP by T-ag
[3]
  Concentration of peptide that completely blocked viral DNA replication: about 600 μM
  Inhibition of SV40 in vitro DNA replication: at all concentrations tested inhibited; also recorded: inhibits in vitro DNA replication reactions
[3]; listed as SEQ ID NO: 2
  Inhibition of SV40 in vitro DNA replication: best inhibitor of DNA replication
[3]; added to a reaction
  Amount of peptide that completely blocks replication: 20

## ADSQHSTPPKKKR (Virus; Host Macaca mulatta; DOMAIN (1)..(13) Domain of SV40 T-Antigen Protein (118)...(130)) [peptide 213, 13-mer of SV40 T-ag centered on Thr124]
[1]; high peptide concentrations (1 mM and 2 mM)
  Binding to DNA in filter binding assay: saturation of binding was observed
[1]; peptide 0.5 mM
  Binding to DNA in filter binding assay: bound relatively poorly
[1]; peptide 0.5 mM to 2 mM, replication conditions, pBR322 competitor
  Binding to DNA in filter binding assay: binds to DNA
[1]; peptide 0.5 mM to 2 mM, replication conditions, pBR322 competitor, listed as peptide T-213
  Binding to DNA in filter binding assay: able to bind to DNA
[2]
  Peptide/DNA complex formation in peptide band shift: found to bind to DNA
[2]; listed as T-213
  Peptide/DNA complex formation in peptide band shift: Mobility shifts are seen
[2]; listed as peptide T-213
  Peptide/DNA complex formation in peptide band shift: binds to DNA
[4]
  Peptide/DNA complex formation in peptide band shift: bound to the 64 bp enhancer control
[4]; listed as peptide T-213
  Peptide/DNA complex formation in peptide band shift: able to bind to the 64-bp enhancer control
T-ag helicase ATPase
  Effect on ATPase of T-ag: inhibited the ATPase of T-ag
[5]; listed as SEQ ID NO: 3
  Effect on T-ag oligomerization, mutant set (FIG. 11 Panel B): complete inhibition of oligomerization
[5]; listed as peptide T-213
  Effect on T-ag oligomerization, mutant set (FIG. 11 Panel B): inhibited T-ag oligomerization
  Effect on T-ag oligomerization (hexamer and double hexamer formation): formation of the standard hexamer and double hexamer protein was inhibited
[5]; peptide final concentration 0.5 mM
  Effect on T-ag oligomerization: inhibited T-ag assembly events
[5]
  Effect on T-ag oligomerization (hexamer and double hexamer formation): inhibited both hexamer and double hexamer formation

## TKRALPNNTSSSPQPKKKPL (DOMAIN (1)..(20) Domain of p53 (304)...(323); listed as Homo sapiens) [SEQ ID NO: 1, peptide from the NLS/Cdk region of human p53]
double-stranded DNA
  Binding to double-stranded DNA: bind to double-stranded DNA; also recorded: binds to double-stranded
single-stranded DNA
  Binding to single-stranded DNA: bound poorly; also recorded: not single-stranded DNA

Source: patent US20040147006A1, “Peptides that bind to DNA and inhibit DNA replication, and methods of use” (priority 2001, published 2004)
